Test results reported in PubChem BioAssay (NCI).
Values joined by “and” are separate entries in the source; they are usually repeats but may differ in a detail not shown here. Identical values can stand only once.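 Assay format: 96-well plates, 48-hour exposure. The concentration for 50% growth inhibition is given as GI50. TGI is the concentration that stops growth completely.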

Legend:
Test in all cases: NCI anticancer screen, dose series, 48 h
[1] = tested on: COLO 205 colon
[2] = tested on: EKVX NSCLC
[3] = tested on: HCC-2998 colon
[4] = tested on: HCT-116 colon
[5] = tested on: MALME-3M melanoma
[6] = tested on: MOLT-4 leukemia
[7] = tested on: NCI-H23 lung
[8] = tested on: NCI-H522 lung
[9] = tested on: SF-268 CNS
[10] = tested on: TK-10 renal

Compound	GI50 [1] [µM]	TGI [1] [µM]	GI50 [2]	TGI [2]	GI50 [3]	TGI [3]	GI50 [4]	TGI [4]	GI50 [5]	TGI [5]	GI50 [6]	TGI [6]	GI50 [7]	TGI [7]	GI50 [8] [µM]	TGI [8]	GI50 [9]	TGI [9]	GI50 [10]	TGI [10]
COC1CCN(C(=O)c2cc(Cc3n[nH]c(=O)c4ccccc34)ccc2F)CC1	> 100	> 100	> 100 µM	> 100 µM	> 100 µM	> 100 µM	> 100 µM	> 100 µM	> 100 µM	> 100 µM	39.3 µM	> 100 µM	51.7 µM	> 100 µM	33.5	> 100 µM	58.3 µM	> 100 µM	> 100 µM	> 100 µM
CNCc1cc(OC)ccc1-c1ccc(OC)c(OC)c1OC		> 100		> 100 µM		> 100 µM		> 100 µM		> 100 µM		> 100 µM		> 100 µM		> 100 µM		> 100 µM		> 100 µM
CC(=O)c1cc(C(=O)c2ccc3c(c2)Sc2ccccc2N3)c2c(C)cc(C)cn12	0.222	0.535	0.636 µM	> 100 µM	0.494 µM	> 100 µM	0.263 µM	> 100 µM	5.73 µM	> 100 µM	0.465 µM	> 100 µM	0.482 µM	> 100 µM	0.16	1.08 µM	0.533 µM	> 46.3 µM	1.31 µM	> 100 µM
CN(C)CCNC(=O)C(C)(C)Oc1ccc(C(=O)c2ccc(Cl)cc2)cc1Cl	4.41	3.7		23.9 µM		16.7 µM		20 µM	3.9 µM	11.1 µM	3.26 µM	> 59.8 µM	4.77 µM	21.9 µM		28.2 µM		28.7 µM		23.7 µM
C=CC(=O)NCc1cccc(Nc2ncc(Br)c(NCCCNC(=O)C3CCC3)n2)c1	0.403	2.01	1.59 µM and 2.59 µM	6.07 µM and 14.9 µM	1.83 µM and 3.03 µM	5.27 µM and 10.1 µM	1.75 µM and 0.603 µM	12.5 µM and 14.3 µM	1.62 µM and 1.68 µM	5.78 µM and 6.56 µM	1.73 µM and 2.28 µM	12.5 µM and > 25 µM	1.5 µM and 1.19 µM	8.7 µM and 7.85 µM		12.2 µM and 5.52 µM	0.297 µM and 0.296 µM	2.57 µM and 4.07 µM	0.41 µM and 1.86 µM	4.21 µM and 11.6 µM
CC1=NOC(=O)/C1=C/c1cccc2ccccc12		> 100		> 100 µM		> 100 µM		> 100 µM		> 100 µM		> 100 µM		> 100 µM		> 100 µM		> 100 µM		> 100 µM
O=C1Nc2c(C(F)(F)F)cccc2[C@@]1(c1ccc(O)cc1)c1ccc(OC(F)(F)F)cc1	< 0.01	< 0.01	0.0134 µM	0.0351 µM	< 0.01 µM	0.0131 µM	< 0.0172 µM		12.4 µM	25 µM	6.51 µM	25.4 µM	< 0.01 µM	< 0.0135 µM	< 0.01	< 0.0194 µM	0.327 µM	17.5 µM	< 0.01 µM	< 0.01 µM
CC(C)(C)C(=O)OCOP(=O)(OCOC(=O)C(C)(C)C)C1CC(O)N(O)C1=O (configuration not stated)	8.66	> 100	10.8 µM	> 100 µM	4.04 µM	49 µM	3.72 µM	> 100 µM	2.82 µM	> 100 µM	3.91 µM	> 100 µM	3.67 µM	25.3 µM	2.95	14.4 µM	3.54 µM	> 100 µM	20.2 µM	> 100 µM
CCCCCCCCCCCCCC1=NCCN1CCO	2.11	3.97	8.35 µM	28.4 µM	4.03 µM	16.5 µM	2.3 µM	5.27 µM	12.7 µM	30.5 µM	4.11 µM	> 100 µM	8.61 µM	31.7 µM	2.52	6.13 µM	2.83 µM	8.12 µM	4.75 µM	12.7 µM
COC(=O)[C@]12CC[C@@H](C)[C@H](C)[C@@H]1C1=CC[C@@H]3[C@@]4(C)C(C=O)=C[C@@](C)(COC(C)=O)C4=CC[C@@]3(C)[C@]1(C)CC2	2.34	5.8	4.13 µM	16.1 µM	3.32 µM	12.4 µM	2.47 µM	10.4 µM	3.74 µM	15.5 µM	1.82 µM	6.12 µM	4.53 µM	19.3 µM	7.97	20.5 µM	4.38 µM	17 µM	9.31 µM	21.6 µM
NNC(=O)CNC(=O)c1ccc(Cl)cc1Cl		> 100		> 100 µM		> 100 µM		> 100 µM		> 100 µM		> 100 µM		> 100 µM		> 100 µM		> 100 µM		> 100 µM
CC1C[C@H](C)CC(C(O)CC2CC(=O)N(Cc3ccccc3)C(=O)C2)C1O (some centres not stated)		> 100		> 100 µM		> 100 µM		> 100 µM		> 100 µM		> 100 µM		> 100 µM		> 100 µM		> 100 µM		> 100 µM
